This series can be described thus: Tolerability of CPT in 3-week mouse xenograft studies (ER2019-09-1B, ER2019-09-1C). Type of series: in vivo. The protocol:
This value is determined from the calculated free and total CPT concentrations in the sample. The “% free of total CPT” value provides the clearest indicator of drug substance stability during storage and use. […] The release specification for % free of total CPT in the drug substance is ≤3%. The stability specification for % free of total CPT in the drug substance is ≤5%. These limits are well below prior studies using CPT administered directly as a free drug. In two separate 3-week mouse xenograft studies (ER2019-09-1B, ER2019-09-1C) CPT itself was dosed and well-tolerated at 3 mg/kg which has a human equivalent dose of 9 mg CPT/m2.

Under “3-week mouse xenograft studies”, `CC[C@@]1(O)C(=O)OCc2c1cc1n(c2=O)Cc2cc3ccccc3nc2-1` [CPT, 20 (S)-camptothecin] had a well-tolerated dose of 3 mg/kg. Under “mouse, in vivo”, the “human equivalent dose of tolerated dose” value is reported as 9 mg CPT/m2.

For the origin of these results see patent US20250152734A1, “USES AND FORMULATIONS OF CAMPTOTHECIN (CPT)-CONTAINING NANOPARTICLES” (DANTARI, INC., priority 2022, published 2025).
